Experiments:
TA_v2 = assay type: biochemical
Experimental: Reaction was performed in 600 mL volume containing 2 mg/mL of TA_v2 powder, 250 mM AD 6, 10 mM BA substrate (dissolved in DMSO) and 0.1 mM PLP in 100 mM CHES buffer, pH 9.5. The final DSMO concentration was 5% (v/v). After 16 h of reaction, 550 mL of reaction mixture was transferred into the membrane unit and 2 intermittent nanofiltration tests were performed. The remaining 50 mL of reaction mixture was used as control without filtration. After the first nanofiltration (6 h duration, DESAL® DK, 20 bar), the collected permeate and the retentate were mixed, and 5 mM of additional BA substrate were added. Additional substrate was added also to the control condition. After 16 h of reaction, the second nanofiltration was performed (5 h duration, DuraMem® 200, 20 bar). Reaction permeate and retentate samples were taken after distinct time periods and prepared for quantitative analysis.
Addition of BA (5 mM) was made to the enzymatic tank E-1 after 24 h reaction. The second nanofiltration was run after 39 h reaction (DuraMem® 200 membrane, 20 bar).

TA_3HMU = test: asymmetric amine synthesis (transamination) with TA_3HMU; assay type: biochemical, Ruegeria pomeroyi; conditions: for product formation from ketosubstrate with HMW amino donors: TA_3HMU, TLC or chiral GC analysis, no equilibrium shifting strategy; for BA conversion: crude extract lyophilized TA_3HMU (3 mg/mL), 25 times excess amine donor (250 mM)
Experimental: Asymmetric synthesis of chiral amines were performed using HMW amino donors and substrates 1a, 1b and 1c in the presence of TA_3HMU enzyme. […] However, performing the transamination reaction using substrates 1a or 1b, followed by a separation of the formed amine product using a membrane unit (8), according to advantageous aspects of the disclosure, will further shift the thermodynamic equilibrium to the product side of the reaction, thereby improving the product purity of the produced amine product.
Asymmetric amine synthesis experiments were performed using freeze-dried crude extract of TA_3HMU, provided by the company Enzymicals (Germany) and using PEG-A and PEG-C as amino donors (the activity of the enzyme being 970 mU/mg, photometric assay based on acetophenone detection). For a first test, a quite high amount of enzyme (12.5 mg/mL freeze dried powder, corresponding to about 6 mg/mL of total protein content) was used. In addition to poly ethylene glycol molecules (PEGs), the common and cheap LMW amino donor IPA was also investigated. Unlike PEGs, which can be retained by a porous (nanofiltration) membrane (3) with appropriate MWCO and/or pore size, the LMW amino donor IPA will also permeate forming the second solution (2).
Asymmetric amine synthesis experiments were also performed using amine transaminases TA_v2, purchased from c-LEcta GmbH, Leipzig, Germany. The purified enzyme was supplied as freeze-dried powder, the activity of TA_v2 being 1.73 U/mg. All reactions were performed in 1 mL volume containing 12.5-0.78 mg/mL of either TA_3HMU or TA_v2 powder, 10-500 mM amine donor (IPA, PEG-A and PEG-C, 10 mM BA model substrate (dissolved in DMSO) and 0.1 mM PLP in 100 mM CHES buffer, pH 9.5. The final DSMO concentration was 5% (v/v). […]
Substrate (BA) and product (MPPA) concentrations were determined by UHPLC (Thermo Scientific™) with UV detection at 194/210 nm. The chromatographic separation was achieved using 1 μL injection onto a C18 reversed-phase column (Waters Acquity UPLC® BEH C18 1.7 μm 2.1×50 mm). The column temperature was kept at 40° C. The gradient elution program is using mobile phase A 0.1% Formic Acid (FA) in Water (dH2O) and mobile phase B 0.1% FA in acetonitrile (ACN). The elution program was as follows: 0-4 min 99-30% A; 4-5 min 30-1% A; 5-5.1 min 1-99% A; 5.1-7.5 min 99% A; all at a flowrate of 400 μL/min. Amine donors AD 3 and AD 6 were analysed by HPLC with ELSD detector on Alltima HP C18 HL 5 μ, 4.6×250 mm. The eluents for PEGs analysis were: A) dH2O, 0.1% FA; B) ACN, 0.1% FA.
Furthermore, tests were conducted using different loadings of freeze-dried crude extract of TA_3HMU. Since the biotransformation could not be observed photometrically, continuous time-dependent following of the enzyme reaction was not possible. Therefore, laborious stopped enzyme assay providing only few measure points had to be employed. As expected, the initial reaction rate decreased when the enzyme loading was reduced. In presence of IPA donor amine, higher conversions were achieved. However, the reaction end-point decreased, reducing the enzyme amount (cf. FIG. 5.2c). […] Experimental conditions in FIG. 5.2: 10 mM BA; 250 mM AD; 0.1 mM PLP; 5% DMSO; 100 mM CHES buffer, pH 9.5, 30° C., 1000 rpm.
As already discussed hereinabove, using IPA as amine donor in transaminase reactions, a very high amount (e.g. 50-100 fold) amine donor excess is required, complicating downstream processing and possibly hampering the stability and activity of TAs (cf. e.g. Slabu, I. et al. in Catal. Today 306, 96-101 (2018); Savile, C. K. et al. in Science 329, 305-9 (2010); Dawood, A. W. H. et al. in ChemCatChem 10, 951-955 (2018)). TA_3HMU stability towards IPA and HMW ADs 3 and 6 was therefore explored. […] In contrast to IPA, in presence of bulky donor amines (cf. FIG. 5.3a and FIG. 5.3b). Experimental conditions in FIG. 5.3: 10 mM BA; 250 mM amine donor (AD 3, AD 6 or IPA); 0.1 mM PLP; 5% DMSO; 100 mM CHES buffer, pH 9.5, 30° C., 1000 rpm. […]

AspFum = test: glycine oxidase assay, TA screening towards HMW amino donors; assay type: biochemical, Aspergillus fumigatus; design: key: 0: no activity detected; conditions: wildtype (R)- TA; 20 mM amino donor (2.5 mM α-MBA), 2.5 mM glyoxylate, CHES pH 9.5, 37° C., absorbance 498 nm
Experimental: (§1) The HMW amino donors listed in Table 1 were tested in a feasibility study for reaction with TA enzymes (the HMW amino donors being commercially available and relatively cheap). More particularly, in this study the acceptance of HMW amino donors by TA enzymes was investigated running a glycine oxidase assay (as described by WeiB et al. in Anal. Chem. 2014, 86, 11847-11853). Thereto, 25 wild type transaminases were selected from a library of enzymes. Transaminase selection was made on the basis of TAs availability, broad substrate and amino donor scope, and stability.
(§2) Final substrate concentration amounted to 2.5 mM glyoxylate, 20 mM large amino donor, 7.28 U/mL horseradish peroxidase, 0.12 mg/mL purified glycine oxidase, 3 mM 4-amino antipyrine, and 4.7 mM vanillic acid in CHES buffer (100 mM) with pH 9.5, in total reaction volumes of 150 μL. Cells with empty pET28a(+) vector were applied as negative control. A reaction using 2.5 mM α-MBA was applied as positive control.
(§3) The above (photometric) assay is semiquantitative: the increasing absorbance (slope in FIG. 4.1) correlates with enzyme activity. An accurate quantification, however, was difficult to be performed as the assay is a multi-enzyme reaction.
(§4) TA_3HMU was then further tested with three commercially available HMW Jeffamines® (AD 3, 4 and 6).

3FCR = test: as above; assay type: biochemical, Ruegeria sp. TM1040; design: key: 0: no activity detected; conditions: wildtype TA; 20 mM amino donor (2.5 mM α-MBA), 2.5 mM glyoxylate, CHES pH 9.5, 37° C., absorbance 498 nm
Experimental: as §1, §2, §3, §4

3HMU = test: as above; assay type: biochemical, Ruegeria pomeroyi; design: key to TA activity towards amino donor (3HMU): 0: no activity detected; conditions: for TA activity towards amino donor (3HMU): wildtype (S)-selective TA, 20 mM amino donor (2.5 mM α-MBA), 2.5 mM glyoxylate, CHES pH 9.5, 37° C., absorbance 498 nm; for TA_3HMU activity / acceptance of amino donor, in words: glycine oxidase assay, semiquantitative
Experimental: as §1, §2, §3, §4

ATA 117 = test: as above; assay type: biochemical, Arthrobacter sp.; design: key: 0: no activity detected; conditions: wildtype TA; 20 mM amino donor (2.5 mM α-MBA), 2.5 mM glyoxylate, CHES pH 9.5, 37° C., absorbance 498 nm
Experimental: as §1, §2, §3, §4

Vfl = test: as above; assay type: biochemical, Vibrio fluvialis JS17; design: key: 0: no activity detected; conditions: wildtype TA; 20 mM amino donor (2.5 mM α-MBA), 2.5 mM glyoxylate, CHES pH 9.5, 37° C., absorbance 498 nm
Experimental: as §1, §2, §3, §4

AspOry = test: as above; assay type: biochemical, Aspergillus oryzae; design: key: 0: no activity detected; conditions: wildtype TA; 20 mM amino donor (2.5 mM α-MBA), 2.5 mM glyoxylate, CHES pH 9.5, 37° C., absorbance 498 nm
Experimental: as §1, §2, §3, §4

MycVan = test: as above; assay type: biochemical, Mycobacterium vanbaalenii; design: key: 0: no activity detected; conditions: wildtype TA; 20 mM amino donor (2.5 mM α-MBA), 2.5 mM glyoxylate, CHES pH 9.5, 37° C., absorbance 498 nm
Experimental: as §1, §2, §3, §4

[1] = on line nanofiltration (Desal-DK membrane) coupled with enzymatic reaction; assay type: biochemical; conditions: after 1.5 h, BA manually diafiltrated (40 mM)
Experimental: Diafiltration depends on the permeate flow rate since it occurs at the same rate of permeation. Therefore, reaction and permeation rates are to be matched. When solution of high concentrated substrate (BA 200 mM in DMSO) was subjected to diafiltration, BA was accumulating in the enzymatic tank 6 (FIG. 20).
Permeate flux was very low, therefore BA was manually diafiltrated (40 mM). After 1.5 h, 18% BA was converted.

CC(N)CCc1ccccc1 (centres unmarked) [1M3P, 1-methyl-3-phenylpropylamine]
additional product formation (TA_v2; NF-2, DuraMem® 200, 20 bar): 15%

CC(=O)c1ccccc1 [1a, acetophenone]
product formation from ketosubstrate with HMW amino donors (TA_3HMU): very low product formation

CC(=O)c1ccccc1Br [1b, ortho-bromoacetophenone]
product formation from ketosubstrate with HMW amino donors (TA_3HMU): very low product formation

NCCCNCCNCCCN [AD 1, 1,2-bis(3-aminopropylamino)ethane]
TA activity towards amino donor (AspFum) (AspFum): 0
TA activity towards amino donor (3FCR): 0
TA activity towards amino donor (3HMU): 0
TA activity towards amino donor (ATA 117) (ATA 117): 0
TA activity towards amino donor (Vfl) (Vfl): 0
TA activity towards amino donor (AspOry) (AspOry): 0
TA activity towards amino donor (MycVan) (MycVan): 0

NCCCN1CCN(CCCN)CC1 [AD 2, 1,4-Bis(3-aminopropyl)piperazine]
TA activity towards amino donor (AspFum) (AspFum): 0
TA_3HMU activity / acceptance of amino donor, in words (3HMU): high activity
TA activity towards amino donor (MycVan) (MycVan): 0

NCCNC(=O)CCN(CCC(=O)NCCN)CCN(CCC(=O)NCCN)CCC(=O)NCCN [AD 5]
TA activity towards amino donor (AspFum) (AspFum): 0
TA activity towards amino donor (3FCR): 0
TA activity towards amino donor (3HMU): 0
TA activity towards amino donor (ATA 117) (ATA 117): 0
TA activity towards amino donor (Vfl) (Vfl): 0
TA activity towards amino donor (AspOry) (AspOry): 0
TA activity towards amino donor (MycVan) (MycVan): 0

CC(=O)CCc1ccccc1 [BA, benzylacetone]
product formation from ketosubstrate with HMW amino donors (TA_3HMU): qualitatively detected
additional BA converted (TA_v2; 16 h after 5 mM substrate addition, NF reaction mixture and control (Reaction_2, Control-Reaction_2)): ~17%
BA further converted (TA_v2; Control-reaction_1, following 6 h, without filtration): 2%
unreacted substrate lost in the permeate stream (TA_v2; Desal-DK): ~58%
additional substrate conversion (TA_v2; NF-1, 6 h nanofiltration, Desal DK, 20 bar): 10%
BA converted (TA_v2; Reaction_1, 16 h, 10 mM BA, 250 mM AD 6, 2 mg/mL TA_v2): ~55%
BA converted [1]: 18%

CC(C)N [IPA, isopropyl amine, reference compound]
TA_3HMU stability in presence of amine donor (TA_3HMU; 250 mM amine donor (25-fold excess), 10 mM BA, 3.125 mg/mL enzyme, pH 9.5, 30° C.): fast inactivated

CC(N)c1ccccc1 (stereo not drawn) [α-MBA, 1-phenylethylamine, reference compound]
TA activity towards amino donor (AspOry) (AspOry): 0
TA activity towards amino donor (MycVan) (MycVan): 0

(highly flexible) poly(ethylene glycol) bis (3-aminopropyl) [AD 7]
TA activity towards amino donor (AspFum) (AspFum): 0
TA_3HMU activity / acceptance of amino donor, in words (3HMU): high activity
TA activity towards amino donor (Vfl) (Vfl): 0
TA activity towards amino donor (AspOry) (AspOry): 0
TA activity towards amino donor (MycVan) (MycVan): 0

O,O′-bis(2-aminopropyl) polypropylene glycol-block-polyethylene glycol-block-polypropylene glycol [AD 6]
TA_3HMU activity / acceptance of amino donor, in words (3HMU): broadly comparable to those achieved with the positive control
TA_3HMU activity / acceptance of amino donor, in words (3HMU; listed as PEG-C): best acceptance
BA conversion (TA_3HMU; 10 mM BA): 51%

Poly(propylene glycol) bis(2-aminopropyl ether) [AD 3]
TA_3HMU activity / acceptance of amino donor, in words (3HMU): broadly comparable to those achieved with the positive control
TA_3HMU activity / acceptance of amino donor, in words (3HMU; listed as PEG-A): best acceptance
BA conversion (TA_3HMU; 10 mM BA): 45%
